Experimental data as given in PMC10182956 (Archives of Toxicology, 2023).
Entries after “also recorded” stand apart in the source; their conditions may differ. Read-outs that look alike come from different tables or passages of the source.

Columns and labels:
[1] = tested on: HepaRG cells; assay: High-content imaging assay: lipid accumulation (Bodipy lipid droplets); type: cell-based; conditions: HepaRG 24 h; for Lipid accumulation response (in words): population level, threshold ± 2 standard deviations of the response at the two lowest concentrations
[2] = tested on: HepaRG cells; assay: Cell viability assessment (WST-1 assay); type: cell-based, human; conditions: 95% CI in brackets
From the text: Undifferentiated HepaRG cells were purchased from Biopredic international (Saint Grégoire, France). HepaRG cells have unlimited growth capacity and phenotypic stability, stable enzymatic activities over 4 weeks of cultivation, and similar metabolic function to primary human hepatocytes, and also avoid limitations of primary cells such as donor variability and phenotypic instability (Aninat et al. [2006]; Guillouzo et al. [2007]; Lambert et al. [2009]; Lübberstedt et al. [2011]; Andersson et al. [2012]). The line contains two cell types, hepatocyte-like and cholangiocyte-like cells (Parent et al. [2004]), which allows for elucidation of cell-specific toxicity (Jossé et al. [2008]). Cells were seeded at a density of approximately 27′000 cells/cm^2 into a 150 × 25 mm petri dish and were cultured for 2 weeks in William’s E medium (cat. nr.: 32,551,020, ThermoFisher Scientific, Massachusetts, USA) supplemented with 2 mM glutamine, 10% (v/v) fetal bovine serum (FBS) good forte (cat. nr.: P40-47,500, PAN-Biotech, Aidenbach, Germany), 100 U/ml penicillin and 100 µg/ml streptomycin (cat. nr.: 15,140,122, ThermoFisher Scientific, Massachusetts, USA), 5 µg/ml Gibco recombinant AOF insulin (cat. nr.: A11382II, ThermoFisher Scientific, Massachusetts, USA) and 50 µM hydrocortisone hemisuccinate (cat. nr.: H4881, Sigma-Aldrich, St. Louis, USA) at 37 °C and 5% CO2. Differentiation was induced by culturing the cells for another 2 weeks in the above mentioned medium supplemented with 1.7% DMSO. After 4 weeks in culture, differentiated HepaRG cells were seeded at a high density of approximately 227′000 cells/cm^2 (72,000 cells/well with 100 µl per well) into black 96-well plates with a clear bottom (cat.nr.: 3603, Corning, New York, USA) and maintained for 10 days. After 10 days, cells were first adapted to treatment medium (culture medium containing 0.5% DMSO and 2% FBS) for 48 h and then used for cell viability and high-content imaging analysis.
Cell viability was analyzed using the WST-1 assay which is based on the measurement of mitochondrial dehydrogenase activity (cat. nr: ab155902, Abcam, Cambridge, UK). HepaRG cells were exposed to chemicals at defined concentrations for 24 h. Triton X-100 (0.01%) was a positive control. One hour before the end of incubation period, 10 µl of WST-1 reagent was added to each well, quickly mixed by shaking the plate, and returned to the cell culture incubator (37 °C, 5% CO2). After 1 h, absorbance was measured (450 nm, reference wavelength 620 nm) using a plate reader (Infinite M200 Pro, Tecan group, Männerdorf, Switzerland). Absorbance was then subtracted from the reference wavelength, corrected for background by subtracting values measured without cells, and then normalized to the solvent control, which was set to 100%. Dose–response data were fitted using drc package (Version 3.0.1) (Ritz et al. [2015]) in R 3.6.1. Data were from at least 3 independent experiments with 6 technical replicates per condition.

[3] = tested on: HepaRG cells
[4] = tested on: HepaRG cells; conditions: HepaRG 24 h; for Mitochondrial membrane potential response (in words): population level, threshold ± 2 standard deviations of the response at the two lowest concentrations
[5] = tested on: HepaRG cells; remark: listed apart in the source
Description: Cellular responses were quantified using a high-content imaging approach (Fig. 1). Based on cell viability assessment, concentrations below the EC50 level were tested in the high-content imaging assay. After 24 h chemical exposure, live cells were incubated with CellROX, which reflects hydroxyl radi [...

[6] = ref Aguilar et al. [2009]; D’Apolito et al. [2012]; Li et al. [2009]; cited from earlier work
[7] = Homo sapiens, WST-1, 24 h exposure, food-related chemicals and pesticides, read-out: EC50 (95% CI) in µM from cell viability assay
[8] = Homo sapiens, 24 h exposure, reference chemicals, read-out: EC50 µM (95% CI) from cell viability (WST-1)

For `CC(C)(c1ccc(O)cc1)c1ccc(O)cc1` [Bisphenol A], the “Lipid accumulation response (in words)” value [1] was “induced significant lipid accumulation” and the EC50 [2, 7] was 237 µM.

With `O=S(=O)(c1ccccc1)N(CC(F)(F)F)c1ccc(C(O)(C(F)(F)F)C(F)(F)F)cc1` [T0901317] the “Lipid accumulation response (in words)” value [1] was “dose-dependently increased and exceeded the threshold”, the “Concentration at which increase of oxidative stress exceeded the threshold” value ([3]; HepaRG 24 h) was 40 µM and the “Mitochondrial membrane potential response (in words)” value [4] was “decrease in MMP below the threshold”. The “Concentration at which increase of number of apoptotic cells (nuclear morphology) exceeded the threshold” value ([5]; HepaRG 24 h) was 40 µM and the EC50 ([2]; 24 h exposure, reference chemicals, read-out: EC50 µM (95% CI) from cell viability (WST-1)) was 42.9 µM.

With `O=C([O-])C1=NN(c2ccc(S(=O)(=O)[O-])cc2)C(=O)C1N=Nc1ccc(S(=O)(=O)[O-])cc1.[Na+].[Na+].[Na+]` (stereo not drawn) [Tartrazine] the “Lipid accumulation response (in words)” value [1] was “induced significant lipid accumulation”.

In the case of `O=[As][O-].[Na+]` [Sodium arsenite], the “Concentration at which increase of oxidative stress exceeded the threshold” value [3] is reported as 25 µM and the “Concentration at which increase of number of apoptotic cells (nuclear morphology) exceeded the threshold” value [5] is reported as 25 µM.

For `Cc1cccc(C)c1N(Cn1cccn1)C(=O)CCl` [Metazachlor], the “Lipid accumulation response (in words)” value [1] was “induced significant lipid accumulation” and the EC50 [2, 7] was 183 µM.

With `N#CC(C#N)=NNc1ccc(OC(F)(F)F)cc1` [FCCP, carbonylcyanide-p-trifluoromethoxyphenylhydrazone] the “Concentration at which decrease of mitochondrial membrane potential exceeded the threshold” value [4] was 2.5 µM.

For `O=C(CO)[C@@H](O)[C@H](O)[C@H](O)CO` [Fructose], the “Lipid accumulation response (in words)” value [1] was “did not stimulate lipid accumulation”, the “Mitochondrial membrane potential response (in words)” value [4] was “dose-dependent increase in MMP exceeding the threshold” and the EC50 [2, 7] was 6.6 µM.

`C[C@H](CCC(=O)O)[C@H]1CC[C@H]2[C@@H]3CC[C@@H]4C[C@H](O)CC[C@]4(C)[C@H]3C[C@H](O)[C@]12C` [Deoxycholic acid] gave an EC50 [2, 7] of 246 µM.

Work on `CC1=CC[C@@H](C(C)(C)O)CC1` [Alpha-terpineol] yielded an EC50 [2, 7] of 2560 µM.

In the case of `C=C(C)[C@H]1Cc2c(ccc3c2O[C@@H]2COc4cc(OC)c(OC)cc4[C@@H]2C3=O)O1` [rotenone], the “Lipid accumulation response (in words)” value [1] is reported as “increased in a dose-dependent manner”, the “Concentration at which decrease of mitochondrial membrane potential exceeded the threshold” value [4] is reported as 2.5 µM and the “OED” value (IVIVE derived median over all positive imaging endpoints, human simulation, Table 2) is reported as 0.3 mg/kg/day. It also gave an EC50 [2, 8] of 18.9 µM.

With `C=CC1(C)OC(=O)N(c2cc(Cl)cc(Cl)c2)C1=O` (stereo not drawn) [Vinclozolin] the “Lipid accumulation response (in words)” value [1] was “induced significant lipid accumulation”.

For `N#Cc1nn(-c2c(Cl)cc(C(F)(F)F)cc2Cl)c(N)c1[S+]([O-])C(F)(F)F` (stereo not drawn) [Fipronil], the EC50 [2, 7] was 21 µM.

For `CCOC(=O)[C@@]1(CCCCCCOc2ccc(Cl)cc2)CO1` [etomoxir], the “Lipid accumulation response (in words)” value [1] was “neither induced lipid accumulation; also recorded: did not give rise to lipid accumulation”, the “Oxidative stress response (in words)” value ([3]; HepaRG 24 h, population level, threshold ± 2 standard deviations of the response at the two lowest concentrations) was “neither induced lipid accumulation, had any consistent impact on oxidative stress” and the “Concentration at which increase of MMP (hyperpolarization) was observed / exceeded the threshold” value [4] was 36 µM. The “Mitochondrial membrane potential response (in words)” value [4] was “increased MMP” and the EC50 [2, 8] was 144 µM.

For `Cn1c(=O)c2c(ncn2C)n(C)c1=O` [caffeine], the “Lipid accumulation response (in words)” value [1] was “decrease of lipid accumulation that exceeded the threshold”, the “Concentration at which decrease of lipid accumulation exceeded the threshold” value ([1]; only at the highest concentration) was 5000 µM and the EC50 [2, 8] was 6530 µM.

In the case of `O=c1[nH]c(=O)c2[nH]c(=O)[nH]c2[nH]1` [Uric acid], the “Lipid accumulation response (in words)” value [1] is given as “induced significant lipid accumulation”, the EC (BMC, 1 SD from control) ([1]; Homo sapiens, lipid accumulation, BMR one standard deviation from control mean, Table 1, read-out: LA: Benchmark concentration (µM) per imaging endpoint calculated with BMDS software) is given as 591 µM and the “In vivo blood plasma conc.” value [6] is given as 217 to 402 µM. The “OED (mg/kg BW/day)” value (IVIVE derived median with 95% CI, from BMC of positive imaging endpoint, oral, daily dosing, Table 1) was 87.3 (95% CI 67.3–150.6) mg/kg BW/day.
